# From patent publication US11000033B2, “Ketone or oxime compound, and herbicide” (NISSAN CHEMICAL CORPORATION, priority 2014, dated 2021)
# Assays:
# Type in all cases: in vivo
# Veronica persica = assay: Test Example 5: herbicidal effect by foliage application, plastic box (symbol R); settings: 320 g/ha, 3 weeks after application
# Summary of the method: (§1)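 Post-emergence spray; diluvial soil (sterilized), ~1.5 cm seed cover; greenhouse 25–30° C; 14-day-old plants; water-diluted emulsion at predetermined dose; visual score at 3 wk post-treatment.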
# Alopecurus myosuroides [1] = assay: Test Example 4: herbicidal effect by soil treatment (symbol J); settings: for Herbicidal effect grade, J: Alopecurus myosuroides: application herbicide amount 320 g/ha; for J: Alopecurus myosuroides, herbicidal effect grade: 320 g/ha
# Summary of the method: (§2)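 Seeds were sown in sterilized diluvial soil, covered with about 1.5 cm of soil, and the soil surface was sprayed with a water-diluted emulsion of the compound at a predetermined rate. Plants grew in a greenhouse at 25° C. to 30° C.; effects were scored visually 3 weeks after application.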
# Amaranthus retroflexus = assay: Test Example 5: herbicidal effect by foliage application, plastic box (symbol N); settings: 320 g/ha, 3 weeks after application
# Summary of the method: as §1
# corn [2] = assay: Test Example 5: effect on crop by foliage application, plastic box (symbol c); settings: 320 g/ha, 3 weeks after application
# Summary of the method: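 Greenhouse culture at 25° C. to 30° C. followed spot-like sowing into sterilized diluvial soil, with seed covered by roughly 1.5 cm of soil.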
# Scirpus juncoides = assay: Test Example 2: herbicidal activity, application during weed generation in submerged conditions (symbol B); settings: Table 23; application herbicide amount 320 g/ha; grade 0-5 by criteria of Test Example 1
# Summary of the method: (§3)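 Read-out: herbicidal effect on each species rated on a visual scale 3 weeks after treatment. Plants were raised together from seed in flooded alluvial soil (4 cm water) at 25° C. to 30° C. and treated at one to two leaves by water-surface application of diluted emulsion.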
# Digitaria ciliaris = assay: Test Example 5: herbicidal effect by foliage application, plastic box (symbol F); settings: 320 g/ha, 3 weeks after application
# Summary of the method: as §1
# Avena fatua = assay: Test Example 4: herbicidal effect by soil treatment (symbol I); settings: for Herbicidal effect grade, I: Avena fatua: application herbicide amount 320 g/ha; for I: Avena fatua, herbicidal effect grade: 320 g/ha
# Summary of the method: as §2
# transplanted rice plant = assay: Test Example 1: effect on crop, application before weed generation in submerged conditions (symbol a); settings: application herbicide amount 320 g/ha
# Summary of the method: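 Rice at 2.5 leaf stage transplanted into submerged soil (4 cm depth) sown with three weed species; herbicide applied before weed emergence.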
# [3] = system: Echinochloa oryzacola Vasing.; assay: Test Example 2: herbicidal activity, application during weed generation in submerged conditions (symbol A); settings: Table 23; application herbicide amount 320 g/ha; grade 0-5 by criteria of Test Example 1
# Summary of the method: as §3
# [4] = system: Echinochloa crus-galli var. crus-galli; assay: Test Example 3: herbicidal effect by foliage application, Wagner pot (symbol H); settings: application herbicide amount 320 g/ha; for H (Echinochloa crus-galli var. crus-galli) herbicidal effect grade: Table 24
# Summary of the method: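 Scoring took place 3 weeks after application, using fixed criteria. Plants had been raised from seed for 14 days at 25 to 30 °C in submerged alluvial soil before a diluted emulsion of the test compound was sprayed uniformly on the leaves.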
# Apera spica-venti = assay: Test Example 4: herbicidal effect by soil treatment (symbol L); settings: for Herbicidal effect grade, L: Apera spica-venti: application herbicide amount 320 g/ha; for L: Apera spica-venti, herbicidal effect grade: 320 g/ha
# Summary of the method: as §2
# Alopecurus myosuroides [5] = assay: Test Example 5: herbicidal effect by foliage application, plastic box (symbol J); settings: 320 g/ha, 3 weeks after application
# Summary of the method: as §1
# corn [6] = assay: Test Example 4: effect on crop by soil treatment (symbol c); settings: for Effect on crop grade, c: corn: application herbicide amount 320 g/ha; for c: corn, effect grade on crop: 320 g/ha
# Summary of the method: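 Sterilized diluvial soil, spot sowing, ~1.5 cm soil cover; greenhouse 25–30° C.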
# Abutilon theophrasti = assay: Test Example 4: herbicidal effect by soil treatment (symbol M); settings: for Herbicidal effect grade, M: Abutilon theophrasti: application herbicide amount 320 g/ha; for M: Abutilon theophrasti, herbicidal effect grade: 320 g/ha
# Summary of the method: as §2
SMILES,"R: Veronica persica, herbicidal effect grade (Veronica persica)","Herbicidal effect grade, J: Alopecurus myosuroides (Alopecurus myosuroides [1])","N: Amaranthus retroflexus, herbicidal effect grade (Amaranthus retroflexus)","c: corn, effect on crop grade (corn [2])","Herbicidal effect grade, B: Scirpus juncoides (Scirpus juncoides)","F: Digitaria ciliaris, herbicidal effect grade (Digitaria ciliaris)","Herbicidal effect grade, I: Avena fatua (Avena fatua)","Herbicidal effect grade, A: Echinochloa oryzacola Vasing. [3]","R: Veronica persica, herbicidal effect (criteria 0-5) (Veronica persica)","J: Alopecurus myosuroides, herbicidal effect grade (Alopecurus myosuroides [1])","N: Amaranthus retroflexus, herbicidal effect (criteria 0-5) (Amaranthus retroflexus)","c: corn, effect on crop (criteria 0-5) (corn [2])","F: Digitaria ciliaris, herbicidal effect (criteria 0-5) (Digitaria ciliaris)","I: Avena fatua, herbicidal effect grade (Avena fatua)","Effect grade on crop, a: transplanted rice plant (transplanted rice plant)","herbicidal effect on H (Echinochloa crus-galli var. crus-galli), grade 0-5 [4]","L: Apera spica-venti, herbicidal effect grade (Apera spica-venti)","J: Alopecurus myosuroides, herbicidal effect (criteria 0-5) (Alopecurus myosuroides [5])","c: corn, effect grade on crop (corn [6])","M: Abutilon theophrasti, herbicidal effect grade (Abutilon theophrasti)",further results
CC(CC1CC(OC(=O)COc2ccccc2)=C(c2c(C)cc(-c3ccc(Cl)cc3)cc2C)C1=O)=NOCC(F)(F)F (mixture of isomers) [9-027],2 (Herbicidal ratio of 20% or higher and lower than 40%),5 (Herbicidal ratio of 90% or more (almost completely withered)),0 (Herbicidal ratio of 5% or lower (almost no effect)),5 (Herbicidal ratio of 90% or more (almost completely withered)),0 (Herbicidal ratio of 5% or lower (almost no effect)),5 (Herbicidal ratio of 90% or more (almost completely withered)),4 (Herbicidal ratio of 70% or higher and lower than 90%),3 (Herbicidal ratio of 40% or higher and lower than 70%),,,,,,,,,,,,,"a (transplanted rice plant) effect on crop grade (transplanted rice plant): 5 (Herbicidal ratio of 90% or more (almost completely withered)); H (Echinochloa crus-galli var. crus-galli) herbicidal effect grade [4]: 5 (Herbicidal ratio of 90% or more (almost completely withered)); Herbicidal effect grade, L: Apera spica-venti (Apera spica-venti): 5 (Herbicidal ratio of 90% or more (almost completely withered)); J: Alopecurus myosuroides, herbicidal effect grade (Alopecurus myosuroides [5]): 5 (Herbicidal ratio of 90% or more (almost completely withered)); Effect on crop grade, c: corn (corn [6]): 0 (Herbicidal ratio of 5% or lower (almost no effect)); Herbicidal effect grade, M: Abutilon theophrasti (Abutilon theophrasti): 0 (Herbicidal ratio of 5% or lower (almost no effect))"
CON=C(C)CC1CC(OC(=O)c2cc(C)on2)=C(c2c(C)cc(C)cc2C)C1=O (stereo not shown) [1-100],,,,,5 (Herbicidal ratio of 90% or more (almost completely withered)),,,5 (Herbicidal ratio of 90% or more (almost completely withered)),3 (Herbicidal ratio of 40% or higher and lower than 70%),5 (Herbicidal ratio of 90% or more (almost completely withered)),0 (Herbicidal ratio of 5% or lower (almost no effect)),5 (Herbicidal ratio of 90% or more (almost completely withered)),5 (Herbicidal ratio of 90% or more (almost completely withered)),3 (Herbicidal ratio of 40% or higher and lower than 70%),5 (Herbicidal ratio of 90% or more (almost completely withered)),5 (Herbicidal ratio of 90% or more (almost completely withered)),5 (Herbicidal ratio of 90% or more (almost completely withered)),5 (Herbicidal ratio of 90% or more (almost completely withered)),5 (Herbicidal ratio of 90% or more (almost completely withered)),4 (Herbicidal ratio of 70% or higher and lower than 90%),
CCCCCCCCS(=O)(=O)OC1=C(c2c(C)cc(C)cc2C)C(=O)C(CC(C)=NOC)C1 (stereo not shown) [1-107],,,,,2 (Herbicidal ratio of 20% or higher and lower than 40%),,,5 (Herbicidal ratio of 90% or more (almost completely withered)),0 (Herbicidal ratio of 5% or lower (almost no effect)),5 (Herbicidal ratio of 90% or more (almost completely withered)),0 (Herbicidal ratio of 5% or lower (almost no effect)),2 (Herbicidal ratio of 20% or higher and lower than 40%),4 (Herbicidal ratio of 70% or higher and lower than 90%),0 (Herbicidal ratio of 5% or lower (almost no effect)),3 (Herbicidal ratio of 40% or higher and lower than 70%),5 (Herbicidal ratio of 90% or more (almost completely withered)),5 (Herbicidal ratio of 90% or more (almost completely withered)),5 (Herbicidal ratio of 90% or more (almost completely withered)),0 (Herbicidal ratio of 5% or lower (almost no effect)),0 (Herbicidal ratio of 5% or lower (almost no effect)),
CON=C(C)CC1CC(OC(=O)c2cnoc2C2CC2)=C(c2c(C)cc(C)cc2C)C1=O (stereo not shown) [1-103],,,,,4 (Herbicidal ratio of 70% or higher and lower than 90%),,,5 (Herbicidal ratio of 90% or more (almost completely withered)),3 (Herbicidal ratio of 40% or higher and lower than 70%),5 (Herbicidal ratio of 90% or more (almost completely withered)),0 (Herbicidal ratio of 5% or lower (almost no effect)),5 (Herbicidal ratio of 90% or more (almost completely withered)),5 (Herbicidal ratio of 90% or more (almost completely withered)),3 (Herbicidal ratio of 40% or higher and lower than 70%),5 (Herbicidal ratio of 90% or more (almost completely withered)),5 (Herbicidal ratio of 90% or more (almost completely withered)),4 (Herbicidal ratio of 70% or higher and lower than 90%),5 (Herbicidal ratio of 90% or more (almost completely withered)),5 (Herbicidal ratio of 90% or more (almost completely withered)),5 (Herbicidal ratio of 90% or more (almost completely withered)),
CC(CC1CC(O)=C(c2c(C)cc(-n3cc(Cl)cn3)cc2C)C1=O)=NOCC(F)(F)F (stereo not shown) [9-010],3 (Herbicidal ratio of 40% or higher and lower than 70%),5 (Herbicidal ratio of 90% or more (almost completely withered)),3 (Herbicidal ratio of 40% or higher and lower than 70%),3 (Herbicidal ratio of 40% or higher and lower than 70%),4 (Herbicidal ratio of 70% or higher and lower than 90%),5 (Herbicidal ratio of 90% or more (almost completely withered)),4 (Herbicidal ratio of 70% or higher and lower than 90%),4 (Herbicidal ratio of 70% or higher and lower than 90%),,,,,,,,,,,,,"a (transplanted rice plant) effect on crop grade (transplanted rice plant): 5 (Herbicidal ratio of 90% or more (almost completely withered)); H (Echinochloa crus-galli var. crus-galli) herbicidal effect grade [4]: 5 (Herbicidal ratio of 90% or more (almost completely withered)); Herbicidal effect grade, L: Apera spica-venti (Apera spica-venti): 5 (Herbicidal ratio of 90% or more (almost completely withered)); J: Alopecurus myosuroides, herbicidal effect grade (Alopecurus myosuroides [5]): 5 (Herbicidal ratio of 90% or more (almost completely withered)); Effect on crop grade, c: corn (corn [6]): 1 (Herbicidal ratio of 5% or higher and lower than 20%); Herbicidal effect grade, M: Abutilon theophrasti (Abutilon theophrasti): 0 (Herbicidal ratio of 5% or lower (almost no effect))"
